Source: a melting point compilation (Tetko et al.; mined from patent text by program, amines drawn as free bases though some values may be those of a salt)

Compound COc1nc2ccccc2nc1NC(=O)N1CCN(c2cc(C)cc(C)c2)CC1 has a melting point of 155 to 157 °C. Compound O=c1ccn(C2OC(CO)C(O)C2Br)c(=O)[nH]1 (configuration not stated) has a melting point of 194 to 195 °C. NC(=O)NCC(C(=O)O)C(F)(F)F (configuration not stated) gave a melting point of 149 to 150 °C. Compound CSc1nc(-c2ccncc2)cc(=O)n1C has a melting point of 176 to 178 °C. In the case of COc1cc2c(cc1OC(C)=O)CCC1C2CCC2(C)C1C=CC21OCCO1 (configuration not stated), the melting point is reported as 161 to 162 °C. Compound CCOCCN(c1cccc2cc(C(N)=S)[nH]c12)S(=O)(=O)c1cccs1 has a melting point of 182 °C. For FC(F)c1ncnc(-c2ccc(Cl)cc2Cl)c1Cl, the melting point was 55 to 56 °C. Work on O=C(O)c1cnc2c3cc(NC(=O)C4CCCCC4)ccc3ncn2c1=O yielded a melting point of 311 to 314 °C. Work on Oc1cc(C(F)(F)F)nn1C1CCCCO1 (configuration not stated) yielded a melting point of 129 to 130 °C. COc1cc(N2C(=O)CCC2=O)ccc1OCCCN1CCN(c2ccccc2)CC1 showed a melting point of 166 to 167 °C. Compound CCOC(=O)CCc1cn(CCc2ccc(OCc3nc(-c4ccccc4)oc3C)cc2)nc1-c1ccccc1 has a melting point of 81 to 82 °C. Compound CC(C)c1ccc2[nH]c(=O)c(C(=O)c3ccccc3)c(O)c2c1 has a melting point of 270 °C. Work on O=C(O)COc1ccc(C(=O)c2cccc(F)c2)c(Cl)c1Cl yielded a melting point of 166 to 168 °C. In the case of Cn1ccnc1-c1ccccc1N, the melting point is reported as 152 to 153 °C. Nc1ccc(-c2cc(C(F)(F)F)nc(-c3ccc(C(F)(F)F)cc3)n2)cc1 gave a melting point of 162 °C. For CN1C(=O)N2C(=NC1(C)C)N(C(=O)NC1CCCCC1)c1ccccc12, the melting point was 114 to 116 °C. Compound N#CCCc1c(-c2ccccc2)c(=O)[nH]c2cc(Cl)ccc12 has a melting point of 252 to 254 °C. O=C(NCCO)c1cccc(-c2ccc3c(c2)N(c2ccc(Cl)cc2Cl)CC3)c1 showed a melting point of 140 to 141 °C. In the case of O=C(c1ccccc1)N1CCCC(c2ccc(Cl)cc2)=N1, the melting point is reported as 117 to 118 °C. Compound CCCN(C(C)C)S(=O)(=O)NC(=O)c1cc(-n2c(=O)cc(C(F)(F)F)n(C)c2=S)c(F)cc1Cl has a melting point of 74 to 75 °C. O=C(O)c1c[nH]c2c1C(=O)CCCC2 gave a melting point of 225 to 227 °C. Work on COc1ccc(C=CC=Cc2ccccc2)cc1 yielded a melting point of 160 to 162 °C. Work on CCOC(=O)C1=C(C)NC(C)=C(C(=O)OCC)C1c1ccccc1O yielded a melting point of 159 to 161 °C. In the case of O=C1Cc2ccc(SCc3ccccc3)cc2N1, the melting point is reported as 132 to 134 °C. In the case of COc1ncnc2c(NC3OC(CO)C(O)C3O)ncnc12 (configuration not stated), the melting point is reported as 183 °C. In the case of CCOC(=O)c1cn(Cc2ccc(Oc3ccccc3)cc2)nc1O, the melting point is reported as 117 to 118 °C. CC(C)CCC(O)C(CC1CCCCC1)NC(=O)C(Cc1c[nH]cn1)N(C)C(=O)C(Cc1ccccc1)NC(=O)N(C)CCN(C)C(=O)N1CCOCC1 (configuration not stated) showed a melting point of 89 to 92 °C. Compound CCc1cccc(CC(=O)O)c1OCCCc1cn(-c2ccc(C(F)(F)F)cn2)nc1C(CC)CC has a melting point of 130 to 131 °C. For CCC(CC)(CC(=O)Nc1cccc(/C=C/c2nc(C3CC3)cs2)c1)C(=O)O, the melting point was 153 to 157 °C. With CC(C)OC(=O)c1cn(-c2cccnc2)cn1 the melting point was 130 to 131 °C. CCC[C@H](NC(=O)Cc1cc(F)cc(F)c1)C(=O)Nc1ncc(-c2ccc(OC)cc2COC(C)C)s1 showed a melting point of 73.9 °C. For O=C(Nc1ccc(CN2CCCCC2)cc1)c1ccc2ccc(-c3ccccc3)cc2c1, the melting point was 177 to 178 °C. For O=C1Nc2cccc(-c3cccc(C(F)(F)F)c3)c2/C1=C/c1ccc[nH]1, the melting point was 197 to 198 °C. With CC(=O)Oc1cccc(C(=O)Nc2ccc3ccc(Cl)nc3n2)c1 the melting point was 207 °C. In the case of Clc1ccc(-c2nc(Cl)c3c(n2)CCCC3)cc1, the melting point is reported as 121 °C. In the case of COc1c(N2CCNC(CF)C2)c(F)cc2c(=O)c(C(=O)O)cn([C@@H]3C[C@@H]3F)c12 (some centres not stated), the melting point is reported as 153 to 156 °C. O=c1ccc(C(F)(F)F)cn1Cc1c(Cl)cccc1Cl gave a melting point of 74 to 76 °C. Work on CNCC(O)c1ccc(CO)cc1 (configuration not stated) yielded a melting point of 80 to 81 °C. COc1cccc(CCC(=O)O)c1OCCCc1cn(-c2ccc(C(F)(F)F)cn2)nc1C(C)C showed a melting point of 112 to 113 °C. Work on COc1cccc2c(=O)c(C#N)c(N)oc12 yielded a melting point of 300 °C. CC(C)(C(O)c1ccc2c(c1)OCO2)[N+](=O)[O-] (configuration not stated) gave a melting point of 88 to 91 °C. In the case of CCc1ccc(Oc2cc3c(cc2Cl)C=C(C(=O)O)C(C(F)(F)F)O3)cc1 (configuration not stated), the melting point is reported as 196 °C. Work on COCc1ccc(Oc2cc(OC)c3[nH]c(C4=NCC(CC(N)=O)S4)cc3c2)cn1 (configuration not stated) yielded a melting point of 135 to 136 °C. With COc1ccc2c(c1)Oc1c(ccc(OC)c1C(OC)OC)C2(C)C the melting point was 60 to 62 °C. Compound CN(C)CCOc1cccc(CC(Nc2cc(-c3ccc(OCc4ccccc4)cc3)ncn2)C(=O)O)c1 (configuration not stated) has a melting point of 143 °C. With CC(C)(CO)NS(=O)(=O)c1cc(NC(=O)c2cnn3c(C4CC4)cc(-c4ccc(Cl)cc4)nc23)c(Cl)s1 the melting point was 238 to 241 °C. For COc1cc(N)c(Cl)cc1C(=O)NN1CCN2CCCCC2C1 (configuration not stated), the melting point was 118 to 119 °C. In the case of COC(=O)c1cc(I)c(C(F)(F)F)cc1N, the melting point is reported as 101 to 103 °C. For COc1ccc(C(=O)N2C(=O)CCC2CCC(=O)OCc2ccccc2)cc1 (configuration not stated), the melting point was 80 to 83 °C. In the case of COC(=O)c1cc2cc(S(N)(=O)=O)sc2s1, the melting point is reported as 219 to 220 °C. N#Cc1cccc(C=O)c1[N+](=O)[O-] showed a melting point of 109 to 111 °C. With CCC#CCCOc1ccc(C=O)cc1OC the melting point was 80 to 81 °C. For Cn1c2cc3ccccc3nc2c2c(Cl)cccc21, the melting point was 228 to 230 °C. COc1ccc2c(cccc2[C@H]2CO[C@H](CCCNC(=O)OCC(=O)NC3CC3)OC2)c1 gave a melting point of 176 °C. Compound CC1=C(C)CC(C(=O)Nc2ccccc2)C(C(=O)O)C1 (configuration not stated) has a melting point of 155 to 156 °C. Compound [N-]=[N+]=NC1CC(n2cnc3c(NC4CC4c4ccccc4)nc(N)nc32)OC1CO (configuration not stated) has a melting point of 65 to 70 °C. For CCCCC1CCC2(C)C(=CCC3C4CCC(=O)C4(C)CCC32)C1 (configuration not stated), the melting point was 84 to 86 °C. CCOC(=O)CCc1cnc2c(NC(=O)c3c(Cl)cccc3Cl)cccc2c1 showed a melting point of 110 to 111 °C. In the case of CCOC(=O)CCc1cc(C(=O)c2ccc(C(=O)OCC)cc2)ccc1OCCCCCBr, the melting point is reported as 76.5 to 78 °C. Compound CCCCCCCCOc1c(OC)cc(N)c2ncccc12 has a melting point of 63 to 64 °C. With O=C(NC1CCCCC1)NS(=O)(=O)c1ccc(CCNC(=O)N2Cc3ccccc3C2=O)cc1 the melting point was 211 to 213 °C. Work on CCCCCc1c(C(C)C)nc(C(C)C)c(CO)c1-c1cccc(C)c1 yielded a melting point of 88 to 90 °C. O=C(CCC(=O)N(CCO)CCO)c1ccccc1 showed a melting point of 98 °C. Work on CN1CCN(CC(=O)N2c3ccccc3C(=S)Nc3cccnc32)CC1 yielded a melting point of 240 to 241 °C. For COc1ccc2c(c1)CCn1ncnc1C2=C1CCN(C)CC1, the melting point was 166 °C. With CS(=O)(=O)SCCCCC(=O)O the melting point was 69 to 71 °C. COc1cc(-c2nn(Cc3ccccc3)c(=O)c3ccccc23)ccc1O gave a melting point of 197 to 200 °C. In the case of CCCn1nc(C(C)C)c(C(=O)OCC)c1Cc1ccc(-c2ccccc2S(=O)(=O)NC(=O)c2ccccc2)cc1, the melting point is reported as 159 to 160 °C. Compound CCOC(=O)c1nnc(N2CCN(c3ccc(N4CC(CNC(C)=O)OC4=O)cc3)CC2F)s1 (configuration not stated) has a melting point of 228 to 230 °C. For COc1cc2c(cc1O)[nH]c1cc(-c3ccccc3Cl)c3c(c12)C(=O)NC3=O, the melting point was 194 to 196 °C. O=[N+]([O-])c1cccnc1Nc1ccc2c(c1)OCO2 gave a melting point of 146 to 148 °C. Cn1c(=O)cc(CCc2ccc(Cl)s2)c2cc(C(N)(c3ccc(Cl)cc3)c3cccnc3)ccc21 (configuration not stated) showed a melting point of 100 °C. For COc1ccc(Nc2nccc(-c3cccnc3)n2)cc1, the melting point was 121 to 122 °C. In the case of CCOC(=O)COc1ccc(NS(C)(=O)=O)cc1OC, the melting point is reported as 118 to 119 °C. Cc1cc(C2=NN(C(=O)N[C@H](C)c3ccccc3)[C@H](C)Cc3cc4c(cc32)OCO4)ccc1[N+](=O)[O-] gave a melting point of 202 to 205 °C. CCCNC(=O)Nc1nc(-c2cc(C)cc(C)c2)c(-c2ccncc2)s1 showed a melting point of 128 to 130 °C. Work on CCc1nc2c(c3c1[nH]c1ccccc13)C(=O)CC(C)(C)C2 yielded a melting point of 188 to 190 °C. In the case of O=C1COc2cc(F)c(N3N=C4CCCCC4C3=O)cc2N1Cc1ccccn1 (configuration not stated), the melting point is reported as 216 to 219 °C. N#Cc1ccc(-c2ccoc2)cc1 gave a melting point of 55 to 57 °C. COC(CN(C)C(=O)Nc1nnc(C(C)Oc2ccccc2)s1)OC (configuration not stated) showed a melting point of 117 to 121 °C. Work on CCc1cc(O)n2ncc(CC)c2n1 yielded a melting point of over 310 °C. For O=C(O)c1cc([N+](=O)[O-])cc2c1CCCC2, the melting point was 209 to 212 °C. In the case of COc1ccc(NC(=O)/C=C/c2ccc([N+](=O)[O-])c(F)c2)cc1[N+](=O)[O-], the melting point is reported as 263 to 265 °C. CC[Si](CC)(CC)OC1CC2=CCC3C4CCC(=O)C4(C)CCC3C2(C)C(O[Si](CC)(CC)CC)C1 (configuration not stated) showed a melting point of 99 to 100 °C. For CCN1CCC2(CC1)OC(c1ccccc1)c1ccccc12 (configuration not stated), the melting point was 113 to 115 °C. Work on C#Cc1ccnc(-c2cc(N)c(C#C[Si](C)(C)C)cc2[N+](=O)[O-])c1 yielded a melting point of 145 to 150 °C. With CS(=O)(=O)Nc1nccc(Oc2ccc3c(C(=O)Nc4ccc(F)c(C(F)(F)F)c4)cccc3c2)n1 the melting point was 246 °C. CC(C)(Oc1ccc(OCCCCc2cc(-c3ccc(C(F)(F)F)cc3)no2)cc1)C(=O)O showed a melting point of 103 to 104 °C. CCOC(=O)C(=CNC1=NN(c2ccc(Cl)cc2)CC1)C(=O)OCC showed a melting point of 159 to 162 °C. With Nc1c2c(nc3cccc(Cl)c13)CCCC2 the melting point was 144 to 145 °C. CCCOc1ccccc1-c1ncc(N)c(=O)[nH]1 gave a melting point of 157 to 158 °C. In the case of CC(=O)OCC12CCC(OC(C)=O)CC1CC=C1C2CCC2(C)C(OC(=O)C(C)(C)C)CCC12O (configuration not stated), the melting point is reported as 141 to 142 °C. With N#Cc1cc(N)cc([N+](=O)[O-])c1 the melting point was 168 to 170 °C. For Cc1ccc(Cl)c(Nc2ccccc2-c2nsc(=O)o2)c1Cl, the melting point was 135 to 137 °C. For CC(C)c1noc(-c2c(Cl)ccc(C(=O)O)c2Cl)n1, the melting point was 104 to 107 °C. Work on OC1CSC(Oc2ccc(-c3cccnc3)nc2Cl)C(O)C1O (configuration not stated) yielded a melting point of 180 °C. For O=C(C=Cc1ccc(C(F)(F)F)cc1-c1nccs1)Nc1ccc2[nH]ccc2c1, the melting point was 203 to 204 °C. Work on CN(NC(=O)c1c(F)cccc1Cl)S(C)(=O)=O yielded a melting point of 135 to 136 °C. CCCS(=O)(=O)c1ccccc1S(=O)(=O)Cl showed a melting point of 74 to 77 °C. O=C1CCn2c(-c3cccs3)nc3c(Cl)ccc1c32 gave a melting point of 252 to 254 °C. CC(=O)c1cc(Oc2ccccc2)c(NS(C)(=O)=O)cc1O showed a melting point of 151 to 153 °C. Work on O=C(Nc1ccccc1)Nc1cccc(-c2ccc(CC3SC(=O)NC3=O)cc2)c1 (configuration not stated) yielded a melting point of 185 °C.
